Reference: US20110105579A1, “Plant Health Composition” (priority 2008, published 2011)

What was measured:
[1] = tested on: Soybeans, variety TMG 103 RR; assay: Soybean field trial: crop emergence and crop establishment after seed treatment (plant count per 5 m row); type: in vivo; details: for Observed efficacy (%) 12 days after planting / Observed efficacy (%) 33 days after planting: increase in number of plants vs control, S6 75, Ia 50 g a.i./100 kg seed; for Number of plants per 5 m distance (mean) 12 days after planting / Number of plants per 5 m distance (mean) 33 days after planting: soybean seed treatment, S6 75 g a.i./100 kg seed, Ia 50 g a.i./100 kg seed; for Number of plants per 5 m distance (mean) 12 days after planting: crop emergence, control 35; for Number of plants per 5 m distance (mean) 33 days after planting: crop establishment, control 34
Procedure: Soybeans were grown in 2008 in the Rondonopolis region, Mato Grosso, Brazil. The variety TMG 103 RR was planted at a seeding rate of 45 kg/ha. The trial was setup as randomized bloc design with 4 replications. Plot size was 10 m^2. The soybean seed was treated prior to planting with either orysastrobin (S6), compound Ia or was left untreated (Control). Compound Ia was used as an FS formulation (100 g a.i./L) with a dose rate of 500 ml/100 kg seed (50 g a.i./100 kg). Orysastrobin (S6) was applied as an FS formulation (250 g a.i./L) with a dose rate of 300 ml per 100 kg seed (75 g a.i./100 kg). In the combination treatments of compound Ia and orysastrobin, both formulations were applied in a sequence. The formulations were applied in a total slurry volume of […] of seed.
The observed efficacy (E) of the compounds on crop emergence and crop establishment as an indicator of plant vitality and plant vigor was determined by counting the plants in a row on a distance of 5 m at 12 and 33 days after planting.
The efficacy of the fungicidal treatments was calculated as the increase in the number of plants in the treatments compared to the control (%):
a corresponds to the number in the treated and b corresponds to the number of plants in the untreated (control) plots
The expected efficacy of the combination of the active compounds was estimated using Colby's formula (see example 1 above)

[2] = tested on: Corn (Zea maydis var. M314A10) seedlings; assay: Cold tolerance of corn seedlings after seed treatment (seedling mortality after exposure to -5° C.); type: in vivo; details: for Observed efficacy (%) of cold tolerance GS 10 (3 hrs): % decrease of seedling mortality vs untreated control; for Observed efficacy (%) of cold tolerance GS 10 (3 hrs) / Seedling mortality (mean %) GS 10 (3 hrs): S8 2.5 g a.i./100 kg seed, Ia 1 g a.i./100 kg seed; for Seedling mortality (mean %) GS 10 (3 hrs): corn seed treatment, -5° C. for 3 hrs at growth stage 10, recorded 3 days after cold treatment, control 27
Procedure: Corn (Zea maydis var. M314A10) seeds were treated in a Hege 11 seed treater in a total slurry volume of 1000 ml/100 kg seed. Treatments comprised:
1) Water (control) 2) Pyraclostrobin (S8) (2.5 g a.i./100 kg); 3) Compound Ia (1 g a.i./100 kg); 4) Pyraclostrobin (S8) (2.5 g a.i./100 kg)+compound Ia (1 g a.i./100 kg).
CF Clear Binder (19 ml/100 kg seed) and color coat blue (13 ml/100 kg seed) were added to all treatments including the check. Following seed treatment, seeds were allowed to dry overnight. Seeds were planted in plastic pots (10 cm×10 cm×12 cm). Experiments were conducted using natural soil (sandy loam soil, source NC, U.S.A.). Pots were placed inside the greenhouse in a completely randomized design. Seedlings were grown at 25° C., until they reached growth stages 10 (first leaf through coleoptile, BBCH Scale). At growth stages 10, seedlings were placed in a completely randomized design in a low temperature incubator (Thermo Electron Corporation) and exposed to −5° C. during 3 hrs. At the time of cold exposure, pots were at field capacity. Percentage of seedling mortality for each treatment was recorded 3 days after the cold treatment.
The efficacy of induced cold tolerance (E) was calculated as % decrease of seedling mortality in the treatments compared to the untreated control:
a corresponds to the seedling mortality (%) of the treated plants and b corresponds to the seedling mortality (%) of the untreated (control) plants
The expected efficacy of the combination of the active compounds were estimated using Colby's formula (Colby, S. R., Calculating synergistic and antagonistic responses of herbicide combinations, Weeds, 15, pp. 20-22, 1967) and compared with the observed efficacy.
E=x+y−x·y/100 Colby's formula • E expected efficacy, expressed in % of the untreated control, when using the mixture of the active compounds A and B at the concentrations a and b • x efficacy, expressed in % of the untreated control, when using the active ingredient A at the concentration a • y efficacy, expressed in % of the untreated control, when using the active ingredient B at the concentration b

SMILES	Observed efficacy (%) 12 days after planting [1]	Observed efficacy (%) 33 days after planting [1]	Number of plants per 5 m distance (mean) 12 days after planting [1]	Number of plants per 5 m distance (mean) 33 days after planting [1]	number of plants, as an indicator of plant vigor (in words) ([1]; vs untreated control, table 6)	Observed efficacy (%) of cold tolerance GS 10 (3 hrs) [2]	Seedling mortality (mean %) GS 10 (3 hrs) [2]	seedling mortality, as an indicator of plant vigor (in words) ([2]; vs water control, table 4)
Cn1cc(C(=O)Nc2ccccc2-c2cc(F)c(F)c(F)c2)c(C(F)F)n1 [Compound Ia, N-(3′,4′,5′-trifluorobiphenyl-2-yl)-3-difluoromethyl-1-methyl-1H-pyrazole-4-carboxamide]	40.0%	32.3%	49	45	significantly increased	15%	23 (b) %	significantly decreased
CNC(=O)/C(=N/OC)c1ccccc1CO/N=C(C)/C(=N/OC)C(/C)=N/OC [Orysastrobin (S6), orysastrobin, reference compound]	57.1%	52.9%	55	52	–	–	–	–
COC(=O)N(OC)c1ccccc1COc1ccn(-c2ccc(Cl)cc2)n1 [Pyraclostrobin (S8), pyraclostrobin, reference compound]	–	–	–	–	–	22%	21 (c) %	–
